Results: patent publication US20250339405A1, “a-SYNUCLEIN AGGREGATE BINDING AGENT AND IMAGING METHOD” (National Institutes for quantum and Radiological Science …, priority 2019, published 2025)
Read-outs that look alike come from different tables or passages of the source.

Legend:
[1] = target: T1, α-synuclein aggregate formed in the brain of the DLB patient (Homo sapiens, UniProt P37840); test: In vitro fluorescence microscope measurement, DLB patient brain sections; type: binding; settings: for binding to the α-synuclein aggregate formed in the brain of the DLB patient, reactivity relative to PBB3: 30 μM compound, 50% ethanol, 30 minutes, room temperature, amygdala sections
T1 construct: Postfixed fresh frozen sections of the amygdala tissue of the DLB patient; from tissue; host or cells: post-mortem human DLB amygdala, frozen sections
Source text: Postmortem human brains were obtained from autopsies carried out with respect to a dementia with Lewy bodies (DLB) and Alzheimer's disease (AD) patients.
A frozen DLB tissue was sliced with a thickness of 20 μm in a cryostat (HM560, Carl Zeiss).
Postfixed fresh frozen sections of the amygdala tissue of the DLB patient and formalin fixed, paraffin embedded sections of a deparaffinized middle frontal gyrus tissue of the AD patient were used. Thirty μM of each of the above compounds and brain sections were incubated in a 50% ethanol solution for 30 minutes at room temperature. The sections were then washed twice, i.e., washed with a 50% ethanol solution for 5 minutes and with ultrapure water for 3 minutes. After mounting the sections using a mounting medium (VECTASHIELD H-1000, Vector Laboratories), images of lesion-enriched areas on the sections were obtained using a fluorescence microscope (DM4000, Leica). Analysis software (Image J) was used to quantify the fluorescence of lesion-enriched and lesion-free (background) areas.

α-synuclein lesions [2] = target: T2, α-synuclein lesions (Mus musculus, UniProt O55042); test: In vivo two-photon laser scanning fluorescence microscopy of α-synuclein fibril-injected model mouse; settings: tail vein, 50 μl of 0.05% solution; 90 minutes after C05-05 or 30 minutes after PBB3
T2 construct: from tissue; host or cells: brain of C57BL/6 mice inoculated in the striatum with recombinant murine α-synuclein fibrils (made in E. coli)
Protocol: Note that the α-synuclein aggregate was inoculated into the striatum of the mouse with the following manner. First, hair on the head of 9-week-old C57BL/6 male mouse anesthetized with 1.5% (v/v) isoflurane was removed, and the scalp was disinfected with isodine, followed by application of xylocaine and incision in the scalp to expose the skull. Then, a hole was drilled in the skull at a position of 0.05 mm posterior to the bregma and 2 mm lateral to the midline, and 3 μl of an α-synuclein fiber solution (murine α-synuclein fiber (4 mg/ml) in saline) was injected into a position […] ventral to the brain surface using a glass pipette, and then the scalp was returned and sutured.
A model mouse was anesthetized with 1.5% (v/v) isoflurane 6 weeks after the injection of the α-synuclein fiber solution, and a cranial window was provided according to the Seylaz-Tomita method (Tomita et al. J Cereb Blood Flow Metab 25, 858-67, 2005). The mouse was anesthetized with 1.5% (v/v) isoflurane 2 weeks after the generation of the cranial window, and 50 μl of a solution of DMSO/physiological saline water=1:1 containing 0.05% of C05-05 or PBB3 was administered via the tail vein. The mouse was fixed under a two-photon laser fluorescence microscope 90 minutes after administration of C05-05 or 30 minutes after administration of PBB3, and 100 μl of a saline solution containing 5 mM of Sulforhodamine 101 was administered intraperitoneally, followed by intravital two-photon fluorescence imaging at an excitation wavelength of 900 nm. The detection wavelengths for C05-05 and PBB3 were set at 500 nm to 550 nm, and detection wavelengths for Sulforhodamine 101 were set at 573 nm to 648 nm.

α-synuclein aggregate [3] = target: T3, α-synuclein aggregate (Homo sapiens, UniProt P37840); test: Binding to α-synuclein aggregate versus tau aggregate (inventors' finding, no method given)
α-synuclein aggregate [4] = target: T3, α-synuclein aggregate; settings: background art, cited from earlier work
α-synuclein lesions [5] = target: T2, α-synuclein lesions; test: Ex vivo imaging of α-synuclein fibril-injected model mouse brain; type: in vivo; settings: 1.66 mg/kg; brains collected 90 minutes after C05-05 or 120 minutes after BF-227
Protocol: A model mouse at 6 weeks after the injection of the α-synuclein fiber solution was anesthetized with 1.5% (v/v) isoflurane in a manner similar to that described in “(Preparation of α-synuclein fibril-injected mouse model)” above, and C05-05 (1.66 mg/kg) or BF-227 (1.66 mg/kg) was intraperitoneally administered.
The brains were collected and frozen 90 minutes after the administration of C05-05 (or 120 minutes after the administration of BF-227), and frozen sections with the thickness of 20 μm were prepared in a cryostat (HM560). After mounting the sections using a mounting medium (VECTASHIELD H-1000), images of α-synuclein aggregate-enriched areas on the sections were obtained using a fluorescence microscope (DM4000).
Moreover, the same sections were immersed and fixed overnight in a phosphate buffer solution containing 4% paraformaldehyde. The brain after fixation was washed under running water and then treated with an autoclave for the antigen retrieval. Immunohistochemical staining with an anti-phosphorylated α-synuclein monoclonal antibody (pS129, abcam, ab59264) (1:1000) was carried out, and after mounting the sections using a mounting medium (VECTASHIELD H-1000), images of the same areas were obtained using the fluorescence microscope (DM4000). FIG. 7(a) contains images showing the case where C05-05 was administered, and FIG. 7(b) is images showing the case where BF-227 was administered.

[6] = system: aggregate of tau or amyloid-β formed in the brain of the AD patient; test: In vitro fluorescence microscope measurement, AD patient brain sections; type: binding, human; settings: AD and DLB patient brain sections, 30 μM
Source text: Postmortem human brains were obtained from autopsies carried out with respect to a dementia with Lewy bodies (DLB) and Alzheimer's disease (AD) patients. Moreover, an AD brain tissue was fixed in 10% neutral buffered formalin, embedded in a paraffin block, and sliced with a thickness of 6 μm. Postfixed fresh frozen sections of the amygdala tissue of the DLB patient and formalin fixed, paraffin embedded sections of a deparaffinized middle frontal gyrus tissue of the AD patient were used. Thirty μM of each of the above compounds and brain sections were incubated in a 50% ethanol solution for 30 minutes at room temperature. The sections were then washed twice, i.e., washed with a 50% ethanol solution for 5 minutes and with ultrapure water for 3 minutes. After mounting the sections using a mounting medium ([sequence] H-1000, Vector Laboratories), images of lesion-enriched areas on the sections were obtained using a fluorescence microscope (DM4000, Leica). Analysis software (Image J) was used to quantify the fluorescence of lesion-enriched and lesion-free (background) areas.

Row | Structure (SMILES) | binding to the α-synuclein aggregate formed in the brain of the DLB patient, reactivity relative to PBB3 [1] | binding selectivity for the α-synuclein aggregate compared with a tau aggregate (α-synuclein aggregate [3]) | other results
1 | CNc1ccc(C#C/C=C/c2nc3ccc(O)cc3s2)cc1 [C05-09, (E)-2-(4-(4-(methylamino)phenyl)but-1-en-3-ynyl)benzo[d]thiazol-6-ol] | reactivity equal to or greater than that of PBB3 | – | –
2 | CNc1ccc(/C=C/C=C/c2nc3ccc(O)cc3s2)cn1 [PBB3, 2-((1E,3E)-4-(6-(methylamino)pyridin-3-yl)buta-1,3-dienyl)benzo[d]thiazol-6-ol] | – | lower binding selectivity for the α-synuclein aggregate as compared with its binding selectivity for a tau aggregate | detection of α-synuclein lesions by intravital two-photon fluorescence imaging (α-synuclein lesions [2]): no lesion was detected; binding to the α-synuclein aggregate (α-synuclein aggregate [3]): some degree of affinity; binding selectivity for the α-synuclein aggregate compared with a tau aggregate (α-synuclein aggregate [3]; listed as 2-((1E,3E)-4-(6-(methylamino)pyridin-3-yl)buta-1,3-dienyl)benzo[d]thiazol-6-ol): higher binding selectivity for an aggregate of tau proteins than to an α-synuclein aggregate
3 | CNc1ccc(C#C/C=C/c2nc3ccc(O)cc3s2)cn1 [C05-03, (E)-2-(4-(6-(methylamino)pyridin-3-yl)but-1-en-3-ynyl)benzo[d]thiazol-6-ol] | reactivity equal to or greater than that of PBB3 | – | –
4 | CNc1ccc(C#C/C=C/c2cc3cc(O)ccc3o2)c(F)n1 [C06-02] | reactivity equal to or greater than that of PBB3 | – | –
5 | CNc1ccc(C#C/C=C/c2nc3ccc(OC)cc3s2)c(F)n1 [C05-04] | reactivity equal to or greater than that of PBB3 | – | –
6 | CN([11CH3])c1ncc(/C=C/c2nc3ccc(OCCF)cc3o2)s1 [[^11C]BF-227] | – | – | binding selectivity for the α-synuclein aggregate (α-synuclein aggregate [4]; binds to an amyloid-β aggregate): low; binding affinity for the α-synuclein aggregate (α-synuclein aggregate [4]): insufficient; detection of α-synuclein lesions in patients by PET (α-synuclein aggregate [4]): only in a subset of MSA patients
7 | CNc1ccc(C#C/C=C/c2nc3ccc(O)cc3s2)c(F)n1 [C05-01, (E)-2-(4-(2-fluoro-6-(methylamino)pyridin-3-yl)but-1-en-3-ynyl)benzo[d]thiazol-6-ol] | reactivity equal to or greater than that of PBB3 | – | –
8 | CN(C)c1ncc(/C=C/c2nc3ccc(OCCF)cc3o2)s1 [BF-227, 2-(2-[2-dimethylaminothiazol-5-yl]ethenyl)-6-5 (2-[fluoro]ethoxy)benzoxazole, reference compound] | – | – | detection of α-synuclein lesions by ex vivo imaging (α-synuclein lesions [5]): no lesion was detected; binding to the α-synuclein aggregate relative to the compounds represented by the formula (I) ([1]; 30 μM, DLB patient brain sections): weaker than the compounds represented by the formula (I); aggregate mainly bound [6]: mainly bound to the amyloid-β aggregate of AD
9 | CNc1ccc(/C=C/C=C/c2nc3ccc(OCC(O)CF)cc3s2)cn1 (centres unmarked) [1-fluoro-3-(2-((1E,3E)-4-(6-(methylamino)pyridin-3-yl)buta-1,3-dienyl)benzo[d]thiazol-6-yloxy)propan-2-ol] | – | higher binding selectivity for an aggregate of tau proteins than to an α-synuclein aggregate | –
10 | [11CH3]Nc1ccc(/C=C/C=C/c2nc3ccc(O)cc3s2)cn1 [2-((1E,3E)-4-(6-((11)C-methylamino)pyridin-3-yl)buta-1,3-dienyl)benzo[d]thiazol-6-ol] | – | higher binding selectivity for an aggregate of tau proteins than to an α-synuclein aggregate | –
11 | CNc1ccc(/C=C/C=C/c2nc3ccc(OCC(O)C[18F])cc3s2)cn1 (centres unmarked) [1-(18)F-fluoro-3-(2-((1E,3E)-4-(6-(methylamino)pyridin-3-yl)buta-1,3-dienyl)benzo[d]thiazol-6-yloxy)propan-2-ol] | – | higher binding selectivity for an aggregate of tau proteins than to an α-synuclein aggregate | –
12 | CNc1ccc(C#C/C=C/c2nc3ccc(CN)cc3s2)cn1 [C05-02, (E)-5-(4-(6-(aminomethyl)benzo[d]thiazol-2-yl)but-3-en-1-ynyl)-N-methylpyridine-2-amine] | reactivity equal to or greater than that of PBB3 | – | –
13 | CN(C)c1ccc(C#C/C=C/c2nc3ccc(O)cc3s2)cc1 [C05-08, (E)-2-(4-(4-(dimethylamino)phenyl)but-1-en-3-ynyl)benzo[d]thiazol-6-ol] | reactivity equal to or greater than that of PBB3 | – | –
